Results from patent publication US10000469B2, “Heat shock protein 70 (hsp-70) receptor ligands” (Duke University, priority 2014, dated 2018).

What was measured:
[1] = target: T1, Hsp70i, Hsc70, Grp78, Grp75, Hsp90 (Homo sapiens, UniProt P0DMV8); experiment: Elution of HEK 293T cell lysate proteins from the ATP resin (silver stain, Western blot); assay type: binding; conditions: few non-specific eluted proteins
T1 construct: endogenous in cells; host or cells: HEK 293T
Protocol: (§1) FLECS Screen: A pEGFP-tagged Hsp70i was (plasmid 15215, Addgene, Cambridge, Mass.) used in the FLECS assay and was originally cloned according to [Zeng et al. (2004). Hsp70 dynamics in vivo: effect of heat shock and protein aggregation. Journal of cell science 117, 4991-5000]. ATP used in the assay was purchased from Sigma (St. Louis, Mo.) and a 200 mM stock was prepared with low salt buffer (150 mM NaCl, 25 mM Tris, pH 7.5, 60 mM MgCl2). The γ-phosphate ATP sepharose was synthesized as previously described and stored in low salt buffer [Haystead et al. (1993). Gamma-phosphate-linked ATP-sepharose for the affinity purification of protein kinases. Rapid purification to homogeneity of skeletal muscle mitogen-activated protein kinase kinase. European journal of biochemistry/FEBS 214, 459-467]. FuGENE 6 transfection reagent (Roche, Mannheim, Germany) was used for transfection of GFP-Hsp70i into HEK 293T cells, following the manufacturer protocol. The transfection ensued for 48 hours, upon which time the cells were harvested and lysed in cell lysis buffer (150 mM NaCl, 50 mM Tris, pH 7.5, 1% Triton X-100, 1 mM EDTA, 1 mM DTT, and 1 tablet Complete Mini protease inhibitor (Roche)). Cell lysates were stored at −80° C. until further use. Upon binding the resin lysates were washed 3× with high stringency wash buffer (1 M NaCl, 25 mM Tris, pH 7.5, 60 mM MgCl2, 1 mM DTT) and 3× with low stringency wash buffer (150 mM NaCl, 25 mM Tris, pH 7.5, 60 mM MgCl2, 1 mM DTT). Next the lysates were transferred to 0.2 μm PVDF filter 96-well plate (Corning, Corning, N.Y.) sitting on top of a black flat-bottomed 96-well catch plate (Corning). […]
(§2) HS-72 specifically targets Hsp70i over other members of the Hsp70 superfamily. […] To more thoroughly determine the specificity of HS-72 for Hsp70i, the HEK 293T eluates were also analyzed for other Hsp70 family members Hsc70, Grp78, and Grp75, as well as Hsp90 by Western blot. […] The linker on the resin was cleaved using sodium dithionite and the samples were subjected to SDS-PAGE and analyzed by Western blot, silver stain, and mass spectrometry. […]

[2] = tested on: Hsp70i, Hsc70, Grp78, Grp75, Hsp90; experiment: as above; assay type: binding; conditions: Western blot
Protocol: as §1, §2

MMTV-neu mice = experiment: HS-72 in vivo efficacy study; parameters: species or system mouse; conditions: for tumor volume vs. no treatment: at 21 days, p<0.05
Protocol: HS-72 in vivo Efficacy Studies: MMTV-neu mice, a HER2 overexpression breast cancer mouse model in which HER2 is under the transcriptional control of the mouse mammary tumor virus promoter/enhancer, were treated with the indicated doses and dosing schedule [Taneja et al., 2009]. All doses were delivered through IP injections using DMSO and their tumors were calipered once weekly. The mice were culled upon reaching tumor burden or if they expressed signs of toxicity as per MP1U standard protocol.

T1 sequence (P0DMV8 2-641): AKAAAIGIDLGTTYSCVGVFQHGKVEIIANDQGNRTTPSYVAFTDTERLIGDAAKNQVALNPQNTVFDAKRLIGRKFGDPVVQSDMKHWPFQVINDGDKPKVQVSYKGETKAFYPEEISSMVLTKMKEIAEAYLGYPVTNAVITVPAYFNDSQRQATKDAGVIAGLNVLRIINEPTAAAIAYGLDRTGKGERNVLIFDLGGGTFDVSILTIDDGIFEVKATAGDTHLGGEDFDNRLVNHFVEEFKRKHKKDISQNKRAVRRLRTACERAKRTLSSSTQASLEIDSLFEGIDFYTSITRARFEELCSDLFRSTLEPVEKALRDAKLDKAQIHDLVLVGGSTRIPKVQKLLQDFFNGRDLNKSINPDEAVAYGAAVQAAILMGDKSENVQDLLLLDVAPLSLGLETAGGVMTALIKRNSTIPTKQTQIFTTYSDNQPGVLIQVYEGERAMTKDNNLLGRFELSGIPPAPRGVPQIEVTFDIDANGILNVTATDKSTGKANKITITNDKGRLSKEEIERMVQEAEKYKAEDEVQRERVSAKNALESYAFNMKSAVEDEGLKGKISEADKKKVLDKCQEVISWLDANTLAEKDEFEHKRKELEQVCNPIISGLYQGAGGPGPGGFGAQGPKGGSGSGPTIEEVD

In the case of `CCCn1c(NC(=O)[C@H]2CCCN(c3cnccn3)C2)nc2ccccc21` [HS-72, (S)—N-(1-propyl-1H-benzo[d]imidazol-2-yl)-1-(pyrazin-2-yl)piperidine-3-carboxamide], the “elution of Hsp70 from ATP resin” value [1] is reported as “elutes Hsp70”, the “Hsp70 family members and Hsp90 eluted from the ATP resin” value [2] is reported as “only inducible Hsp70 was eluted” and the “increase of median survival vs. no treatment” value (MMTV-neu mice; I.P. 20 mpk BiW) is reported as 6 days. The “tumor volume vs. no treatment” value (MMTV-neu mice; I.P. 20 mpk BiW, 20 mg/kg) was “significant reduction”, the “tumor volume vs. no treatment” value (MMTV-neu mice; I.P. 20 mpk BiW, listed as HS72, 20 mg/kg) was “significant decrease” and the “increase of median survival vs. no treatment” value (MMTV-neu mice; I.P. 20 mpk qd) was 13 days.
